Measured values as given in US20040266623A1, “SYNERGISTIC QUINCLORAC HERBICIDAL COMPOSITIONS” (priority 2003, published 2004).

What was measured:
Assay in all cases: Greenhouse pot test, postemergent spray, visual control rating converted to percent control
Type in all cases: in vivo
plantain = test system: plantain
Experimental: (§1) Pots of crabgrass, dandelion, white clover, and plantain grown in greenhouse soiless growth media were sprayed with a greenhouse pot sprayer at 43.46 gallons of spray solution/acre and allowed to stand in the greenhouse. Visual observation of the effects made by the herbicidal compositions on the plants in the test pots was recorded for control of crabgrass, dandelion, clover and plantain at 24 hours after treatment (HAT), 48 hours after treatment (HAT), 72 hours after treatment (HAT), 7 days after treatment (DAT), 14 days after treatment (DAT) and 21 days after treatment (DAT). A control rating scale of 1 to 9 was used to record the visual observation of the effect of the herbicidal composition on the plants over the time period of the tests. 1=no control, and 9=death of plant, with intervening numbers representing successive degrees of observed effectiveness of the herbicidal composition over time. The 1-9 control rating scale was converted to percent control in the test data charts that follow.
(§2) The test protocol of S. R. Colby as set out in his article entitled “Calculating Synergistic and Antagonistic Responses of Herbicide Compositions,” received for publication Apr. 11, 1966, Contribution No. 3796 and Scientific Article No. 1271 of the Maryland Agricultural Experiment Station, Department pf Agronomy, University of Maryland was followed to evaluate the synergistic properties of the combination of quinclorac plus a herbicidal protox inhibitor, and a combination of quinclorac, plus a herbicidal protox inhibitor plus a herbicidal auxinic agent as compared with the individual herbicides, using Colby's formulas E=X+Y−XY/100 for a two herbicide combination, where E=the expected percent of inhibition of growth by herbicides, X=the percent inhibition of growth by herbicide A at p lb/A, and Y=the percent inhibition of growth by herbicide B at q lb/A, for a given combination of two herbicides. Colby's formula E=X+Y+Z−(XY+XZ+YZ)/100+XYZ/10,000, was used for the three-way herbicide combination evaluation, where E, X and Y are the same as in the two herbicide formula and Z=the percent inhibition of growth by the third herbicide.

crabgrass = test system: crabgrass
Experimental: as §1, §2

dandelion = test system: dandelion
Experimental: as §1, §2

white clover = test system: white clover
Experimental: as §1, §2

[1] = Test 3, 7 DAT, scale 1=no control, 9=death of plant
[2] = Test 3, 14 DAT, scale 1=no control, 9=death of plant
[3] = Test 3, 21 DAT, scale 1=no control, 9=death of plant
[4] = Test 3, 24 HAT, scale 1=no control, 9=death of plant
[5] = Test 3, 72 HAT, scale 1=no control, 9=death of plant
[6] = Test 4, 24 HAT, scale 1=no control, 9=death of plant
[7] = Test 4, 72 HAT, scale 1=no control, 9=death of plant

Cc1cc(Cl)ccc1OCC(=O)OCCCCCC(C)C [MCPA IOE @ 1.10 lbs/A]
% Control Plantain (plantain; Test 3, 7 DAT): 66.7% | Control (1-9) Plantain (plantain; [1]): 6 | % Control Plantain (plantain; Test 3, 14 DAT): 77.8% | Control (1-9) Plantain (plantain; [2]): 7 | % Control Plantain (plantain; Test 3, 21 DAT): 77.8% | Control (1-9) Plantain (plantain; [3]): 7 | % Control Plantain (plantain; Test 3, 24 HAT): 44.4% | Control (1-9) Plantain (plantain; [4]): 4 | % Control Plantain (plantain; Test 3, 72 HAT): 44.4% | Control (1-9) Plantain (plantain; [5]): 4 | % Control Plantain (plantain; Test 4, 24 HAT): 22.2% | Control (1-9) Plantain (plantain; [6]): 2 | % Control Plantain (plantain; Test 4, 72 HAT): 44.4% | Control (1-9) Plantain (plantain; [7]): 4 | % Control Crabgrass (crabgrass; Test 3, 7 DAT): 11.1% | Control (1-9) Crabgrass (crabgrass; [1]): 1 | % Control Crabgrass (crabgrass; Test 3, 14 DAT): 22.2% | Control (1-9) Crabgrass (crabgrass; [2]): 2 | % Control Crabgrass (crabgrass; Test 3, 21 DAT): 44.4% | Control (1-9) Crabgrass (crabgrass; [3]): 4 | % Control Crabgrass (crabgrass; Test 3, 24 HAT): 11.1% | Control (1-9) Crabgrass (crabgrass; [4]): 1 | % Control Crabgrass (crabgrass; Test 3, 72 HAT): 11.1% | Control (1-9) Crabgrass (crabgrass; [5]): 1 | % Control Crabgrass (crabgrass; Test 4, 24 HAT): 11.1% | Control (1-9) Crabgrass (crabgrass; [6]): 1 | % Control Crabgrass (crabgrass; Test 4, 72 HAT): 11.1% | Control (1-9) Crabgrass (crabgrass; [7]): 1 | % Control Dandelion (dandelion; Test 3, 7 DAT): 66.7% | Control (1-9) Dandelion (dandelion; [1]): 6 | % Control Dandelion (dandelion; Test 3, 14 DAT): 77.8% | Control (1-9) Dandelion (dandelion; [2]): 7 | % Control Dandelion (dandelion; Test 3, 21 DAT): 88.9% | Control (1-9) Dandelion (dandelion; [3]): 8 | % Control Dandelion (dandelion; Test 3, 24 HAT): 33.3% | Control (1-9) Dandelion (dandelion; [4]): 3 | % Control Dandelion (dandelion; Test 3, 72 HAT): 55.6% | Control (1-9) Dandelion (dandelion; [5]): 5 | % Control Dandelion (dandelion; Test 4, 24 HAT): 33.3% | Control (1-9) Dandelion (dandelion; [6]): 3 | % Control Dandelion (dandelion; Test 4, 72 HAT): 55.6% | Control (1-9) Dandelion (dandelion; [7]): 5 | % Control Clover (white clover; Test 3, 7 DAT): 66.7% | Control (1-9) Clover (white clover; [1]): 6 | % Control Clover (white clover; Test 3, 14 DAT): 88.9% | Control (1-9) Clover (white clover; [2]): 8 | % Control Clover (white clover; Test 3, 21 DAT): 100.0% | Control (1-9) Clover (white clover; [3]): 9 | % Control Clover (white clover; Test 3, 24 HAT): 44.4% | Control (1-9) Clover (white clover; [4]): 4 | % Control Clover (white clover; Test 3, 72 HAT): 44.4% | Control (1-9) Clover (white clover; [5]): 4 | % Control Clover (white clover; Test 4, 24 HAT): 44.4% | Control (1-9) Clover (white clover; [6]): 4 | % Control Clover (white clover; Test 4, 72 HAT): 55.6% | Control (1-9) Clover (white clover; [7]): 5

Cc1cc(Cl)ccc1OCC(=O)OCCCCCC(C)C [MCPA IOE]
% Control Plantain (plantain; Test 4, 7 DAT, 1.10 lbs/A): 66.7% | Control (1-9) Plantain (plantain; Test 4, 7 DAT, 1.10 lbs/A): 6 | % Control Plantain (plantain; Test 4, 14 DAT, 1.10 lbs/A): 66.7% | Control (1-9) Plantain (plantain; Test 4, 14 DAT, 1.10 lbs/A): 6 | % Control Crabgrass (crabgrass; Test 4, 7 DAT, 1.10 lbs/A): 11.1% | Control (1-9) Crabgrass (crabgrass; Test 4, 7 DAT, 1.10 lbs/A): 1 | % Control Crabgrass (crabgrass; Test 4, 14 DAT, 1.10 lbs/A): 11.1% | Control (1-9) Crabgrass (crabgrass; Test 4, 14 DAT, 1.10 lbs/A): 1 | % Control Dandelion (dandelion; Test 4, 7 DAT, 1.10 lbs/A): 44.4% | Control (1-9) Dandelion (dandelion; Test 4, 7 DAT, 1.10 lbs/A): 4 | % Control Dandelion (dandelion; Test 4, 14 DAT, 1.10 lbs/A): 55.6% | Control (1-9) Dandelion (dandelion; Test 4, 14 DAT, 1.10 lbs/A): 5 | % Control Clover (white clover; Test 4, 7 DAT, 1.10 lbs/A): 66.7% | Control (1-9) Clover (white clover; Test 4, 7 DAT, 1.10 lbs/A): 6 | % Control Clover (white clover; Test 4, 14 DAT, 1.10 lbs/A): 100.0% | Control (1-9) Clover (white clover; Test 4, 14 DAT, 1.10 lbs/A): 9
